System: Testosterone
Assay: Testosterone level in blood (serum CLIA) after repeated sc PEP-1
Format: in vivo, SD rats
Protocol: PEP-1 (peptide of SEQ ID NO: 1), lyophilized white powder, obtained according to the method mentioned in example 1 was dissolved in 0.9% of saline, considering the correction factor of PEP-1 (purity: 94.13%, content: 92.36%, correction factor: 1.15). 50 mg/mL stock solution was further diluted into 20 mg/mL, 2 mg/mL, and 1 mg/mL with 0.9% saline, and stored at 4° C. for a week until the use.
The purpose of this example is to confirm the change of sexual hormones in blood from SD rats with 7 days repeated daily administration of SEQ ID NO: 1 peptide, PEP-1. This experiment followed the Ethics Regulation of Animal Test by KAMSI Inc. (Korea Animal Medical Science Institute). In addition, this experiment, Non-GLP experiment, referred to the MFDS (Ministry of Food and Drug Safety) notification; Agent 2013-40 (5th April 2013), Principles of Good Laboratory Practice (1997).
SPF Rats (Crlj:CD(SD)) were purchased from ORIENTBio Inc. (Mokdong-ri, Buk-myeon, Gapyeong-gun, Gyeonggi-do, Republic of Korea). 75 male (6.5 weeks old and 190˜210 g) and 75 female (6.5 weeks old and 160˜180 g) rats were monitored for 4 days, and 64 of male and female rats (each) were selected for the experiment. Raising condition is as follows; 23±3° C. of temperature, […] of relative humidity, 10˜20 times/hr of number of air changes, 12 hours (8 a.m.˜8 p.m.) of lighting with 150˜300 Lux of intensity.
64 male and female […] (mentioned above) were divided into 8 groups. Administration regimen, for example, drugs, routes, dosages, and volumes were as follows:
The detailed administration regimen is as follows; once a day, twice a day and twice a week in each experimental group. Injection initiated at 10 a.m. every day, and each rat was injected at one minute intervals. Rats in Group 9, 10, 13 and 14 were injected twice a week. Administration of high dose test agent preceded that of low dose. The volume of injection was calculated using recently measured weight of rats, and it was 5 mL/kg. Subcutaneous injection was performed as follows; assistant tilted the back of rat upward, and experimenter sterilized the back of rat with 70% alcohol, followed by subcutaneous injection of test agent with 26 G syringe.
1.4 mL of blood sample (0.7 mL of serum) was collected after measurement of weight (Day 0). Next day (1 Day), 1.4 mL of blood sample (0.7 mL of serum) was collected twice after injection of test agent (4 hrs and 8 hrs after administration of test agent). For next 6 days (Day 2˜Day 7), 1.4 mL of blood was extracted once everyday (4 hours after injection of test agent). Dose and volume of test agent of each group followed the Table 3, and injection time zone was same every day. Blood was extracted from the jugular vein, and left at room temperature for 30 minutes. Serum was separated using centrifugation (10,000 rpm for 5 minutes), and stored at −70±5° C. in Deep freezer until the use. Blood extraction from each subject was done in the same time zone every day.
A CLIA (Chemi-Luminescence Immune Assay) Kit was used to analyze Testosterone, Estradiol E2, FSH (Follicle stimulating hormone), and LH (Luteinizing hormone). Analysis was completed within 48 hrs after blood extraction (Laboratory Medicine Department, Chung-Ang University Hospital), and detailed method is as follows; One-way ANOVA was used to verify the comparison between the vehicle and PEP-1, and between different doses of PEP-1. For further analysis, Duncan test was used as parametric test and Dunnett's test as non-parametric test. p<0.05 represents the statistical significance, and all statistical analysis was carried out with SPSS 10.1.
Testosterone was analyzed using the samples prepared from example 2. 15 μL of serum was used for analysis. Fundamentals of analysis is competitive immunoassay based on direct chemi-luminescent. As mentioned in example 2, CLIA (Chemi-luminescence immune assay) Kit was used for Testosterone analysis, following the manufacture's protocol. […]

Question: How did the “Testosterone level in blood” value (G11 Female 100 mg/kg sc 1/day x7, 6 days) turn out when “EARPALLTSRLRFIPK (listed as Homo sapiens) [PEP-1, hormone secretion modulator / GnRH analog]” was run?
Answer: The value was 1.01 ng/dL.

Question: And the “Testosterone level in blood” value (G11 Female 100 mg/kg sc 1/day x7, 7 days)?
Answer: The value was 1.25 ng/dL.

Question: And the “Testosterone level in blood” value (G11 Female 100 mg/kg sc 1/day x7, pre)?
Answer: Its value is 1.79 ng/dL.

Question: What about the “Testosterone level in blood” value (G12 Male 100 mg/kg sc 1/day x7, 4 hr) of the same sequence?
Answer: The value was 0.08 ng/dL.

Question: And the “Testosterone level in blood” value (G12 Male 100 mg/kg sc 1/day x7, 8 hr)?
Answer: The value was 0.01 ng/dL.

Question: And the “Testosterone level in blood” value (G12 Male 100 mg/kg sc 1/day x7, 2 days)?
Answer: Its value is 0.01 ng/dL.

Question: What about the “Testosterone level in blood” value (G12 Male 100 mg/kg sc 1/day x7, 3 days) of the same sequence?
Answer: Its value is 0.05 ng/dL.

Question: What about the “Testosterone level in blood” value (G12 Male 100 mg/kg sc 1/day x7, 4 days) of the same sequence?
Answer: Its value is 0.17 ng/dL.

Question: What about the “Testosterone level in blood” value (G12 Male 100 mg/kg sc 1/day x7, 5 days) of the same sequence?
Answer: Its value is 0.11 ng/dL.

Question: And the “Testosterone level in blood” value (G12 Male 100 mg/kg sc 1/day x7, 6 days)?
Answer: The value was 0.12 ng/dL.

Question: What about the “Testosterone level in blood” value (G12 Male 100 mg/kg sc 1/day x7, 7 days) of the same sequence?
Answer: The value was 0.12 ng/dL.

Question: And the “Testosterone level in blood” value (G12 Male 100 mg/kg sc 1/day x7, pre)?
Answer: Its value is 0.18 ng/dL.

Question: And the “Testosterone level in blood” value (G13 Female 100 mg/kg sc 2/week x2 (days 1,7), 4 hr)?
Answer: Its value is 7.48 ng/dL.

Question: What about the “Testosterone level in blood” value (G13 Female 100 mg/kg sc 2/week x2 (days 1,7), 8 hr) of the same sequence?
Answer: Its value is 6.34 ng/dL.

Question: What about the “Testosterone level in blood” value (G13 Female 100 mg/kg sc 2/week x2 (days 1,7), 2 days) of the same sequence?
Answer: Its value is 0.97 ng/dL.

Question: And the “Testosterone level in blood” value (G13 Female 100 mg/kg sc 2/week x2 (days 1,7), 3 days)?
Answer: The value was 1.65 ng/dL.

Question: What about the “Testosterone level in blood” value (G13 Female 100 mg/kg sc 2/week x2 (days 1,7), 4 days) of the same sequence?
Answer: Its value is 1.25 ng/dL.

Question: What about the “Testosterone level in blood” value (G13 Female 100 mg/kg sc 2/week x2 (days 1,7), 5 days) of the same sequence?
Answer: Its value is 1.3 ng/dL.

Question: What about the “Testosterone level in blood” value (G13 Female 100 mg/kg sc 2/week x2 (days 1,7), 6 days) of the same sequence?
Answer: Its value is 2.54 ng/dL.

Question: What about the “Testosterone level in blood” value (G13 Female 100 mg/kg sc 2/week x2 (days 1,7), 7 days) of the same sequence?
Answer: Its value is 12.35 ng/dL.

Question: What about the “Testosterone level in blood” value (G13 Female 100 mg/kg sc 2/week x2 (days 1,7), pre) of the same sequence?
Answer: The value was 1.71 ng/dL.

Question: And the “Testosterone level in blood” value (G14 Male 100 mg/kg sc 2/week x2 (days 1,7), 4 hr)?
Answer: The value was 0.07 ng/dL.

Question: What about the “Testosterone level in blood” value (G14 Male 100 mg/kg sc 2/week x2 (days 1,7), 8 hr) of the same sequence?
Answer: The value was 0.01 ng/dL.

Question: And the “Testosterone level in blood” value (G14 Male 100 mg/kg sc 2/week x2 (days 1,7), 2 days)?
Answer: The value was 0.01 ng/dL.

Question: And the “Testosterone level in blood” value (G14 Male 100 mg/kg sc 2/week x2 (days 1,7), 3 days)?
Answer: The value was 0.13 ng/dL.

Question: And the “Testosterone level in blood” value (G14 Male 100 mg/kg sc 2/week x2 (days 1,7), 4 days)?
Answer: Its value is 0.17 ng/dL.

Question: What about the “Testosterone level in blood” value (G14 Male 100 mg/kg sc 2/week x2 (days 1,7), 5 days) of the same sequence?
Answer: The value was 0.13 ng/dL.

Question: What about the “Testosterone level in blood” value (G14 Male 100 mg/kg sc 2/week x2 (days 1,7), 6 days) of the same sequence?
Answer: Its value is 0.14 ng/dL.

Question: What about the “Testosterone level in blood” value (G14 Male 100 mg/kg sc 2/week x2 (days 1,7), 7 days) of the same sequence?
Answer: Its value is 0.15 ng/dL.

Question: What about the “Testosterone level in blood” value (G14 Male 100 mg/kg sc 2/week x2 (days 1,7), pre) of the same sequence?
Answer: The value was 0.13 ng/dL.

Question: What about the “Testosterone level in blood” value (G15 Female 250 mg/kg sc 1/day x7, 4 hr) of the same sequence?
Answer: Its value is 6.27 ng/dL.

Question: What about the “Testosterone level in blood” value (G15 Female 250 mg/kg sc 1/day x7, 8 hr) of the same sequence?
Answer: The value was 8.2 ng/dL.

Question: What about the “Testosterone level in blood” value (G15 Female 250 mg/kg sc 1/day x7, 2 days) of the same sequence?
Answer: The value was 3.77 ng/dL.

Question: And the “Testosterone level in blood” value (G15 Female 250 mg/kg sc 1/day x7, 3 days)?
Answer: Its value is 2.09 ng/dL.

Question: What about the “Testosterone level in blood” value (G15 Female 250 mg/kg sc 1/day x7, 4 days) of the same sequence?
Answer: The value was 0.8 ng/dL.

Question: And the “Testosterone level in blood” value (G15 Female 250 mg/kg sc 1/day x7, 5 days)?
Answer: Its value is 0.75 ng/dL.

Question: What about the “Testosterone level in blood” value (G15 Female 250 mg/kg sc 1/day x7, 6 days) of the same sequence?
Answer: Its value is 1.27 ng/dL.

Question: What about the “Testosterone level in blood” value (G15 Female 250 mg/kg sc 1/day x7, 7 days) of the same sequence?
Answer: Its value is 1.52 ng/dL.

Question: What about the “Testosterone level in blood” value (G15 Female 250 mg/kg sc 1/day x7, pre) of the same sequence?
Answer: Its value is 1.65 ng/dL.

Question: What about the “Testosterone level in blood” value (G16 Male 250 mg/kg sc 1/day x7, 4 hr) of the same sequence?
Answer: The value was 0.11 ng/dL.

Question: And the “Testosterone level in blood” value (G16 Male 250 mg/kg sc 1/day x7, 8 hr)?
Answer: The value was 0.03 ng/dL.

Question: And the “Testosterone level in blood” value (G16 Male 250 mg/kg sc 1/day x7, 2 days)?
Answer: The value was 0 ng/dL.

Question: What about the “Testosterone level in blood” value (G16 Male 250 mg/kg sc 1/day x7, 3 days) of the same sequence?
Answer: Its value is 0.08 ng/dL.

Question: And the “Testosterone level in blood” value (G16 Male 250 mg/kg sc 1/day x7, 4 days)?
Answer: The value was 0.18 ng/dL.

Question: And the “Testosterone level in blood” value (G16 Male 250 mg/kg sc 1/day x7, 5 days)?
Answer: The value was 0.09 ng/dL.

Question: What about the “Testosterone level in blood” value (G16 Male 250 mg/kg sc 1/day x7, 6 days) of the same sequence?
Answer: Its value is 0.14 ng/dL.

Question: What about the “Testosterone level in blood” value (G16 Male 250 mg/kg sc 1/day x7, 7 days) of the same sequence?
Answer: Its value is 0.12 ng/dL.

Question: And the “Testosterone level in blood” value (G16 Male 250 mg/kg sc 1/day x7, pre)?
Answer: Its value is 0.18 ng/dL.

Question: And the Testosterone level (female group, after injection of PEP-1)?
Answer: Its Testosterone level is 0.05 ng/dL.

Question: What about the “Effect on the Testosterone level” value (female rat) of the same sequence?
Answer: The value was “does not have significant effect”.

Question: What about the Testosterone level (male groups, Day 1, all groups injected with PEP-1) of the same sequence?
Answer: The Testosterone level was 6 to 10 ng/dL.

Question: And the “Testosterone level, PEP-1 versus vehicle” value (male groups, after Day 3)?
Answer: The value was “no significant difference between PEP-1 and vehicle”.
